Data on 28 compounds can be found in patent publication US8410106B2, “Hydrazine-substituted anthranilic acid derivatives” (Bayer Cropscience AG, priority 2010, dated 2013).

Like-named read-outs stand apart in the source and are kept apart here.

Series [1] is described as follows: logP determination by HPLC on reversed-phase columns (C 18), EEC Directive 79/831 Annex V.A8. It is filed as physicochemical.
Series [2] concerns green peach aphid (Myzus persicae). The series is described as follows: Myzus test (MYZUPE spray treatment). Type of series: in vivo. Conditions: foliar, 144 h, read-out: activity (aphids killed). The protocol: After 6 days the activity is determined, in %.
Series [3] has as its system caterpillars of the army worm (Spodoptera frugiperda). The series is described as follows: Spodoptera frugiperda test (SPODFR spray treatment). Conditions: foliar, 168 h, read-out: activity (caterpillars killed). Type of series: in vivo.
Series [4] concerns larvae of the mustard beetle (Phaedon cochleariae). The series is described as follows: Phaedon test (PHAECO spray treatment). Conditions: in Brassica rapa, foliar, 168 h, read-out: activity (beetle larvae killed).
The mark [5] stands for this setting: HPLC, reversed-phase C 18, value in text of the Preparation Examples, read-out: logP.
Where [6] appears, read: HPLC, reversed-phase C 18, table value without method mark, read-out: logP.
Setting [7] is: application rate 100 g/ha, after 7 days, maize leaf discs, spray.
Where [8] appears, read: application rate 100 g/ha, after 6 days, Chinese cabbage leaf discs, spray.

Take `COC(=O)N(C)NC(=O)c1cc(Cl)cc(C)c1NC(=O)c1cc(Cn2nnc(C(F)(F)C(F)(F)C(F)(F)F)n2)nn1-c1ncccc1Cl` [Example 1, methyl N′-(5-chloro-2-{[2-(3-chloropyridin-2-yl)-5-(5-heptalluoropropyltetrazol-2-ylmethyl)-2H-pyrazole-3-carbonyl]amino}-3-methylbenzoyl)-N-methylhydrazinecarboxylate]: in series [1] (setting [5]), the chromatographic logP came out at 3.66. For the same compound, the pest or weed control at 100 g/ha in series [2] (in Brassica rapa), in series [3] (in Zea mays) and in series [4] was 100% each time.
Take `COC(=O)NNC(=O)c1cc(I)cc(C)c1NC(=O)c1cc(Cn2nnc(C(F)(F)C(F)(F)C(F)(F)F)n2)nn1-c1ncccc1Cl` [Example 2, Methyl N′-(2-{[2-(3-chloropyridin-2-yl)-5-(5-heptalluoropropyltetrazol-2-ylmethyl)-2H-pyrazole-3-carbonyl]amino}-5-iodo-3-methylbenzoyl)hydrazincarboxylate]: the chromatographic logP in series [1] (setting [5]) turned out to be 3.58. Besides, the pest or weed control at 100 g/ha in series [3] (in Zea mays) and in series [4] was 100% in each case.
`COC(=O)NNC(=O)c1cc(Cl)cc(C)c1NC(=O)c1cc(Cn2nnc(C(F)(F)F)n2)nn1-c1ncccc1Cl` [Example 3] came in with a chromatographic logP in series [1] of 2.73. Also, the pest or weed control at 100 g/ha in series [2] (in Brassica rapa), in series [3] (in Zea mays) and in series [4] was 100% throughout.
As to `COC(=O)NNC(=O)c1cc(C#N)cc(C)c1NC(=O)c1cc(Cn2nnc(C(F)(F)F)n2)nn1-c1ncccc1Cl` [Example 4], in series [1], the chromatographic logP was 2.41. Further, the pest or weed control at 100 g/ha in series [2] (in Brassica rapa), in series [3] (in Zea mays) and in series [4] was 100% each time.
In series [1], `COC(=O)N(C)NC(=O)c1cc(Cl)cc(C)c1NC(=O)c1cc(Cn2nnc(C(F)(F)F)n2)nn1-c1ncccc1Cl` [Example 5] came in with a chromatographic logP of 2.96. In addition, the pest or weed control at 100 g/ha in series [2] (in Brassica rapa), in series [3] (in Zea mays) and in series [4] was 100% throughout.
Consider `COC(=O)N(C)NC(=O)c1cc(C#N)cc(C)c1NC(=O)c1cc(Cn2nnc(C(F)(F)F)n2)nn1-c1ncccc1Cl` [Example 6], for which the chromatographic logP in series [1] stood at 2.63. The pest or weed control at 100 g/ha in series [2] (in Brassica rapa), in series [3] (in Zea mays) and in series [4] was 100% each time.
In turn, `COC(=O)N(C)N(C)C(=O)c1cc(Cl)cc(C)c1NC(=O)c1cc(Cn2nnc(C(F)(F)F)n2)nn1-c1ncccc1Cl` [Example 7] came in with a chromatographic logP in series [1] of 3.39. Also, the pest or weed control at 100 g/ha in series [2] (in Brassica rapa), in series [3] (in Zea mays) and in series [4] was 100% each time.
Consider `COC(=O)N(C)N(C)C(=O)c1cc(C#N)cc(C)c1NC(=O)c1cc(Cn2nnc(C(F)(F)F)n2)nn1-c1ncccc1Cl` [Example 8], for which the chromatographic logP in series [1] is 2.97. The pest or weed control at 100 g/ha in series [2] (in Brassica rapa), in series [3] (in Zea mays) and in series [4] was 100% each time.
Consider `COC(=O)N(C)NC(=O)c1cc(Cl)cc(Cl)c1NC(=O)c1cc(Cn2nc(C(F)(F)F)c(Cl)c2C)nn1-c1ncccc1Cl` [Example 11], for which, in series [1], the chromatographic logP was determined as 3.55. For the same compound, the pest or weed control at 100 g/ha came out at 90% in series [2] (in Brassica rapa), 100% in series [3] (in Zea mays) and 100% in series [4].
Take `COC(=O)N(C)NC(=O)c1cc(Cl)cc(Cl)c1NC(=O)c1cc(Cn2nc(C(F)(F)F)c(Br)c2C)nn1-c1ncccc1Cl` [Example 12]: the chromatographic logP in series [1] is 3.57. Moreover, the pest or weed control at 100 g/ha in series [2] (in Brassica rapa), in series [3] (in Zea mays) and in series [4] was 100% throughout.
Regarding `COC(=O)N(C)NC(=O)c1cc(Cl)cc(C)c1NC(=O)c1cc(Cn2nc(C(F)(F)C(F)(F)F)cc2C(F)(F)C(F)(F)F)nn1-c1ncccc1Cl` [Example 13], in series [1] (setting [6]), the chromatographic logP stood at 4.32. Further, the pest or weed control at 100 g/ha in series [3] (setting [7]) and in series [4] was 100% each time.
For the compound `COC(=O)N(C)NC(=O)c1cc(Cl)cc(Cl)c1NC(=O)c1cc(Cn2nc(C(F)(F)C(F)(F)F)cc2C(F)(F)C(F)(F)F)nn1-c1ncccc1Cl` [Example 14], the chromatographic logP in series [1] (setting [6]) came out at 4.3. Moreover, the pest or weed control at 100 g/ha in series [3] (setting [7]) and in series [4] was 100% in each case.
Consider `COC(=O)N(C)NC(=O)c1cc(C#N)cc(C)c1NC(=O)c1cc(Cn2nnc(C(F)(C(F)(F)F)C(F)(F)F)n2)nn1-c1ncccc1Cl` [Example 16], for which the chromatographic logP in series [1] (setting [6]) turned out to be 3.26. For the same compound, the pest or weed control at 100 g/ha in series [2] (setting [8]), in series [3] (setting [7]) and in series [4] was 100% in each case.
The compound `COC(=O)N(C)NC(=O)c1cc(I)cc(C)c1NC(=O)c1cc(Cn2ccc(C(F)(F)F)n2)nn1-c1ncccc1Cl` [Example 17] gave a chromatographic logP in series [1] of 3.01. Besides, the pest or weed control at 100 g/ha in series [2] (in Brassica rapa), in series [3] (in Zea mays) and in series [4] was 100% throughout.
Consider `COC(=O)N(C)NC(=O)c1cc(Cl)cc(Cl)c1NC(=O)c1cc(Cn2nc(C(F)(F)F)c([N+](=O)[O-])c2C)nn1-c1ncccc1Cl` [Example 19], for which the chromatographic logP in series [1] (setting [6]) turned out to be 3.11. Besides, the pest or weed control at 100 g/ha in series [3] (setting [7]) and in series [4] was 100% each time.
As for `COC(=O)N(C)NC(=O)c1cc(Cl)cc(C)c1NC(=O)c1cc(Cn2cc([N+](=O)[O-])c(C(F)(F)F)n2)nn1-c1ncccc1Cl` [Example 20], in series [1], the chromatographic logP worked out at 3.07. In addition, the pest or weed control at 100 g/ha in series [2] (in Brassica rapa) was 90%; in series [3] (in Zea mays) it was 100%; in series [4] it was 100%.
Compound `COC(=O)N(C)NC(=O)c1cc(C#N)cc(C)c1NC(=O)c1cc(COc2ccc(C(F)(F)F)nn2)nn1-c1ncccc1Cl` [Example 22] registered a chromatographic logP in series [1] of 2.53. The pest or weed control at 100 g/ha in series [2] (in Brassica rapa) and in series [4] was 100% throughout.
With `COC(=O)N(C)NC(=O)c1cc(Cl)cc(C)c1NC(=O)c1cc(Cn2cc(-c3ccc(Cl)cc3)nn2)nn1-c1ncccc1Cl` [Example 23], the chromatographic logP in series [1] was 3.14. The pest or weed control at 100 g/ha in series [2] (in Brassica rapa), in series [3] (in Zea mays) and in series [4] was 100% each time.
`COC(=O)N(C)NC(=O)c1cc(Cl)cc(Cl)c1NC(=O)c1cc(Cn2nnc(C(F)(F)C(F)(F)F)n2)nn1-c1ncccc1Cl` [Example 25]: the chromatographic logP in series [1] was 3.32. In addition, the pest or weed control at 100 g/ha in series [2] (in Brassica rapa), in series [3] (in Zea mays) and in series [4] was 100% throughout.
The compound `COC(=O)N(C)NC(=O)c1cc(Cl)cc(C)c1NC(=O)c1cc(Cn2nnc(C(F)F)n2)nn1-c1ncccc1Cl` [Example 26] came in with a chromatographic logP in series [1] of 2.49. Moreover, the pest or weed control at 100 g/ha in series [2] (in Brassica rapa), in series [3] (in Zea mays) and in series [4] was 100% throughout.
In series [1], `COC(=O)N(C)NC(=O)c1cc(Br)cc(C)c1NC(=O)c1cc(Cn2nnc(C(F)F)n2)nn1-c1ncccc1Cl` [Example 27] yielded a chromatographic logP of 2.58. Also, the pest or weed control at 100 g/ha in series [2] (in Brassica rapa), in series [3] (in Zea mays) and in series [4] was 100% throughout.
`COC(=O)N(C)NC(=O)c1cc(Cl)cc(Cl)c1NC(=O)c1cc(Cn2nnnc2C(F)F)nn1-c1ncccc1Cl` [Example 28]: the chromatographic logP in series [1] was determined as 2.27. The pest or weed control at 100 g/ha in series [2] (in Brassica rapa), in series [3] (in Zea mays) and in series [4] was 100% in each case.
The compound `COC(=O)N(C)NC(=O)c1cc(C#N)cc(C)c1NC(=O)c1cc(Cn2ncc(C(F)(F)F)n2)nn1-c1ncccc1Cl` [Example 29] showed a chromatographic logP in series [1] of 2.62. Further, the pest or weed control at 100 g/ha in series [2] (in Brassica rapa), in series [3] (in Zea mays) and in series [4] was 100% throughout.
The compound `COC(=O)N(C)NC(=O)c1cc(Cl)cc(C)c1NC(=O)c1cc(Cn2ncc(C(F)(F)F)n2)nn1-c1ncccc1Cl` [Example 30] returned a chromatographic logP in series [1] of 2.94. Further, the pest or weed control at 100 g/ha in series [2] (in Brassica rapa), in series [3] (in Zea mays) and in series [4] was 100% in each case.
With `COC(=O)N(C)NC(=O)c1cc(Cl)cc(Cl)c1NC(=O)c1cc(Cn2ncc(C(F)(F)F)n2)nn1-c1ncccc1Cl` [Example 31], the chromatographic logP in series [1] is 2.94. The pest or weed control at 100 g/ha in series [2] (in Brassica rapa), in series [3] (in Zea mays) and in series [4] was 100% in each case.
As to `COC(=O)N(C)NC(=O)c1cc(I)cc(C)c1NC(=O)c1cc(Cn2ncc(C(F)(F)F)n2)nn1-c1ncccc1Cl` [Example 32], in series [1], the chromatographic logP was 2.81. Further, the pest or weed control at 100 g/ha in series [2] (in Brassica rapa) came to 90%; in series [3] (in Zea mays), 100%; in series [4], 100%.
Regarding `COC(=O)N(C)NC(=O)c1cc(I)cc(C)c1NC(=O)c1cc(Cn2cnc(C(F)(F)F)c2)nn1-c1ncccc1Cl` [Example 77], the chromatographic logP in series [1] was found to be 2.56. Besides, the pest or weed control at 100 g/ha in series [2] (in Brassica rapa) worked out at 80%; in series [3] (in Zea mays) it was 83%.
For `COC(=O)NNC(=O)c1cc(C#N)cc(C)c1NC(=O)c1cc(Cn2nnc(C(F)(F)F)n2)nn1-c1ccccc1Cl` [Example 84], the pest or weed control at 100 g/ha in series [2] (setting [8]), in series [3] (setting [7]) and in series [4] was 100% throughout.
